Data reported in ChEMBL document CHEMBL1151722, “Sesquiterpenoids and phenylpropanoids from Chloranthus serratus” (2008).
In brackets after ≈: the same amount, converted by molar mass.

Tested on: Helicobacter pylori
Test: Antimicrobial activity against Helicobacter pylori-SS1
Assay type: functional

MIC [mg/L] | SMILES
25 (≈ 96 µM) | CC1=C2C(=O)c3c(C)coc3C[C@@]2(C)[C@H](O)CC1=O [CHLORANTENE D]
25 (≈ 102 µM) | C=C[C@]1(C)C(=O)c2occ(C)c2C(=O)[C@H]1C(=C)C [CHLORANTENE F]
25 (≈ 102 µM) | C=C1CC/C=C(\C)C(=O)c2occ(C)c2C(=O)C1 [CHLORANTENE E]
25 (≈ 106 µM) | C=C1CCC[C@]2(C)CC[C@@](O)(C(C)C)C(=O)[C@@H]12 [CHLORANTENE G]
